From paper PMC11901381 (Future Medicinal Chemistry, 2025) come the findings set out here.

Data set [1] is described as follows: Animal cytotoxicity, CCK-8 assay. It is filed as cell-based, bovine. The following applies: bovine, MDBK (Madin-Darby bovine kidney) cells. In general terms: Formazan colour is commonly taken as a measure of viable cells.
In data set [2] the test system is L. donovani strain 9515 promastigotes. The data set can be described thus: Antipromastigote resazurin assay. It is filed as cell-based, Leishmania donovani. As to conditions: for IC50: Leishmania donovani, read-out: Antipromastigote activity IC50; for AG (activity gain): IC50 (1)/IC50 (compd.), L. donovani promastigotes; for SI1: SI1 = IC50 Vero/IC50 promastigote, L. donovani.

Another data set in a line: General. It is filed as cell-based. As to conditions: African green monkey, Vero cells (monkey kidney epithelial cells).
The test system of data set [3] is T. brucei brucei strain GUTat3.1. The data set can be described thus: Antitrypanosomal assay. It is filed as cell-based, Trypanosoma brucei brucei. As to conditions: Trypanosoma brucei, read-out: Antitrypomastigote activity IC50 ± SD Tbb GuTat3.1.
For data set [4], the system named is L. major strain NIH S promastigotes. Description: Antipromastigote resazurin assay. The format is cell-based, Leishmania major. As to conditions: for IC50: Leishmania major, read-out: Antipromastigote activity IC50; for AG (activity gain): IC50 (1)/IC50 (compd.), L. major promastigotes; for SI4: SI4 = IC50 Vero/IC50 promastigote, L. major. Background: The colour change of resazurin is a common sign of viable cells or microbes.

Data set [5] has as its system L. major strain NIH S intramacrophage amastigotes. Description: Intramacrophage antileishmanial resazurin assay. It is filed as cell-based, Leishmania major. The following applies: for SI5: SI5 = IC50 Vero/static IC50 amastigote; for SI5 / SI6 / SpI3 / SpI4: L. major; for SI6: SI6 = IC50 Vero/cidal IC50 amastigote; for SpI3: SpI3 = IC50 promastigote/static IC50 amastigote; for SpI4: SpI4 = IC50 promastigote/cidal IC50 amastigote; for Static anti-amastigote activity IC50: L. major NIH S amastigotes in THP-1 macrophages, 24 hours after lysis.

Data set [6] is described as follows: Host cell toxicity, resazurin assay. It is filed as cell-based. As to conditions: human.
For data set [7], the system named is L. donovani strain 9515 intramacrophage amastigotes. The data set can be described thus: Intramacrophage antileishmanial resazurin assay. The format is cell-based, Leishmania donovani. As to conditions: for SI2: SI2 = IC50 Vero/static IC50 amastigote; for SI2 / SI3 / SpI1 / SpI2: L. donovani; for SI3: SI3 = IC50 Vero/cidal IC50 amastigote; for SpI1: SpI1 = IC50 promastigote/static IC50 amastigote; for SpI2: SpI2 = IC50 promastigote/cidal IC50 amastigote; for Static anti-amastigote activity IC50: L. donovani 9515 amastigotes in THP-1 macrophages, 24 hours after lysis.

Data set [8] can be described thus: Solubility observed during sample preparation and screening. It is filed as physicochemical.

Some results are limits rather than exact numbers.

Turning to `O=Cc1c[nH]c2ccc([N+](=O)[O-])cc12` [2a, 5-Nitro-1H-indole-3-carbaldehyde], the IC50 (commonly the concentration that gives 50% inhibition) in data set [1] was more than 526 µM; in data set [2], more than 100 µM; in “General”, more than 100 µM; in [3], more than 131 µM; in data set [4], more than 100 µM.
In turn, `C#CCn1cc(C=O)c2cc([N+](=O)[O-])ccc21` [2b, 5-Nitro-1-(prop-2-yn-1-yl)-1 H-indole-3-carbaldehyde] gave an SI5 in data set [5] of 41. The compound also displayed an SI6 in data set [5] of 41. Moreover, the SpI3 in data set [5] was 41. In addition, the SpI4 in data set [5] turned out to be 42. For the same compound, the IC50 was more than 438 µM in data set [1]; more than 100 µM in data set [2]; 91.1 ± 12.6 µM in data set [6]; more than 100 µM in “General”; more than 110 µM in [3]; more than 100 µM in data set [4].
Regarding `O=Cc1cn(Cc2ccccc2)c2ccc([N+](=O)[O-])cc12` [2c, 1-Benzyl-5-nitro-1 H-indole-3-carbaldehyde], the SI2 in data set [7] stood at 28. The compound further came in with an SI3 in data set [7] of 28. In data set [7], this compound had a SpI1 of 28. In data set [7], this compound had a SpI2 of 28. Moreover, the IC50 in data set [1] was more than 357 µM; in data set [6] it was more than 100 µM; in “General”, more than 100 µM; in data set [3] it was more than 89 µM.
Consider `Cc1ccc(Cn2cc(C=O)c3cc([N+](=O)[O-])ccc32)cc1` [2d, 1-(4-Methylbenzyl)-5-nitro-1 H-indole-3-carbaldehyde], for which the “AG (activity gain)” value is on record as 61 in data set [2] and 32.3 in data set [4]. This compound came in with an SI1 in data set [2] of 117. Further, the IC50 in [6] was more than 100 µM; in the data set “General”, 96.9 ± 5.35 µM; in data set [3] it was more than 85 µM. The SI4 in [4] is 68.
Turning to `O=Cc1cn(Cc2cccc(Cl)c2)c2ccc([N+](=O)[O-])cc12` [2f, 1-(3-Chlorobenzyl)-5-nitro-1 H-indole-3-carbaldehyde], in [5], the SI5 is 10, the SI6 is reported as 7 and the SpI4 worked out at 1. In data set [6], the half-maximal inhibitory concentration (IC50) is more than 100 µM. Moreover, the IC50 in “General” stood at 99.91 ± 0.13 µM. The IC50 in data set [3] is more than 79 µM. Besides, in [4], the “AG (activity gain)” value is recorded as 5.3 and the SI4 worked out at 11.
In data set [5], `Cc1ccc(Cn2cc(/C=C3\SC(=S)NC3=O)c3cc([N+](=O)[O-])ccc32)cc1` [3d, (Z)-5-{[1-(4-Methylbenzyl)-5-nitro-1 H-indol-3-yl]methylene}-2-thioxothiazolidin-4-one] yielded an SI5 of 78, a SpI3 of 79 and a SpI4 of 107. Besides, in [7], the SI2 was 19, the SI3 is 17, the SpI1 came out at 17 and the SpI2 stood at 15. Moreover, in data set [2], the “AG (activity gain)” value is on record as 0.6, the 50% inhibitory concentration (IC50) stood at 87.4 ± 17.8 µM and the SI1 was found to be 1. In data set [6], the IC50 was more than 100 µM. For the same compound, the IC50 in “General” came out at 98.2 ± 1.62 µM. In addition, the IC50 in [3] is more than 70 µM. Besides, the concentration for half-maximal inhibition (IC50) in data set [4] was more than 100 µM.
In data set [5], `O=C1NC(=S)S/C1=C\c1cn(Cc2cccc(Cl)c2)c2ccc([N+](=O)[O-])cc12` [3f, (Z)-5-{[1-(3-Chlorobenzyl)-5-nitro-1 H-indol-3-yl]methylene}-2-thioxothiazolidin-4-one] yielded an SI5 of 5, an SI6 of 8, a SpI3 of 4 and a SpI4 of 7. Further, in [7], the SI2 was determined as 12, the SI3 came to 11, the SpI1 came to 10 and the SpI2 is on record as 10. In data set [2], the “AG (activity gain)” value came to 2.6, the IC50 came to 19.1 ± 3.7 µM and the SI1 is on record as 1. In data set [6], this compound returned an IC50 of more than 100 µM. In addition, half-maximal inhibition in the data set “General” (IC50) was put at 22.2 ± 1.65 µM. Further, the half-maximal inhibitory concentration (IC50) in [3] is more than 61 µM. Further, in data set [4], the “AG (activity gain)” value is 2.6, the IC50 turned out to be 17.7 ± 0.9 µM and the SI4 is 1. Moreover, the “Solubility in 100% DMSO” value in data set [8] (100% dimethyl sulfoxide used for sample preparation) is given as “poor solubility”.
Regarding `O=C1CSC(=S)N1/N=C/c1c[nH]c2ccc([N+](=O)[O-])cc12` [4a, (E)-3-{[(5-Nitro-1 H-indol-3-yl)methylene]amino}-2-thioxothiazolidin-4-one], the IC50 is 66.8 ± 9.55 µM in data set [1]; more than 100 µM in data set [2]; more than 100 µM in “General”; more than 61 µM in [3]; more than 100 µM in data set [4].
In data set [5], `C#CCn1cc(/C=N/N2C(=O)CSC2=S)c2cc([N+](=O)[O-])ccc21` [4b, (E)-3-({[5-Nitro-1-(prop-2-yn-1-yl)-1 H-indol-3-yl]methylene}amino)-2-thioxothiazolidin-4-one] yielded an SI5 of 11. The same compound displayed an SI6 in [5] of 12. In data set [5], this compound showed a SpI3 of 11. Also, the SpI4 in data set [5] is given as 12. Further, the IC50 was more than 100 µM in data set [2]; more than 100 µM in data set [6]; more than 100 µM in “General”; more than 59 µM in data set [3]; more than 100 µM in [4]. In addition, the “Solubility in aqueous screening medium” value in data set [8] is reported as “poor solubility”.
Compound `O=C1CSC(=S)N1/N=C/c1cn(Cc2ccccc2)c2ccc([N+](=O)[O-])cc12` [4c, (E)-3-{[(1-Benzyl-5-nitro-1 H-indol-3-yl)methylene]amino}-2-thioxothiazolidin-4-one] showed an SI5 in data set [5] of 38. In [5], this compound returned an SI6 of 41. The SpI3 in data set [5] was 38. In data set [5], this compound yielded a SpI4 of 41. The half-inhibitory concentration (IC50) is more than 100 µM in [2]; more than 100 µM in data set [6]; more than 100 µM in “General”; more than 60 µM in [3]; more than 100 µM in [4].
As to `Cc1ccc(Cn2cc(/C=N/N3C(=O)CSC3=S)c3cc([N+](=O)[O-])ccc32)cc1` [4d, (E)-3-({[1-(4-Methylbenzyl)-5-nitro-1H -indol-3-yl]methylene}amino)-2-thioxothiazolidin-4-one], the “Static anti-amastigote activity IC50” value in [5] and in data set [7] was “inactive” throughout. The IC50 was more than 100 µM in [2], more than 100 µM in “General”, more than 58 µM in data set [3] and 70.9 ± 14.3 µM in data set [4]. Further, the “AG (activity gain)” value in data set [4] is given as 0.7. This compound also returned an SI4 in data set [4] of 1. Also, in [8], the “Solubility in aqueous screening medium” value is “poor solubility”.
For the compound `O=C1CSC(=S)N1/N=C/c1cn(Cc2cccc(Cl)c2)c2ccc([N+](=O)[O-])cc12` [4f, (E)-3-({[1-(3-Chlorobenzyl)-5-nitro-1 H-indol-3-yl]methylene}amino)-2-thioxothiazolidin-4-one], the 50% inhibitory concentration (IC50) in data set [2] is more than 100 µM; in the data set “General” it was 58.8 ± 13.2 µM; in data set [3] it was more than 56 µM; in [4] it was more than 100 µM.
In data set [5], `C[C@@H]1[C@H](O)[C@@H](C)/C=C/C=C/C=C/C=C/C=C/C=C/C=C/[C@H](O[C@@H]2O[C@H](C)[C@@H](O)[C@H](N)[C@@H]2O)C[C@@H]2O[C@](O)(C[C@@H](O)C[C@@H](O)[C@H](O)CC[C@@H](O)C[C@@H](O)CC(=O)O[C@H]1C)C[C@H](O)[C@H]2C(=O)O` [AMB, amphotericin B, reference compound] yielded a SpI3 of 0.1 and a SpI4 of 0.2. Also, in [7], the SpI1 was 0.40 and the SpI2 came to 0.04. For the same compound, the IC50 in data set [2] was 0.02 ± 0.009 µM.
In turn, `CC[C@H]1CN2CCc3cc(OC)c(OC)cc3[C@@H]2C[C@@H]1C[C@H]1NCCc2cc(OC)c(OC)cc21` [Em, emetine, reference compound] registered a concentration for half-maximal inhibition (IC50) in the data set “General” of 0.09 ± 0.009 µM.
For the compound `Cc1ccc(C(=O)Nc2ccc(S(=O)(=O)O)c3cc(S(=O)(=O)O)cc(S(=O)(=O)O)c23)cc1NC(=O)c1cccc(NC(=O)Nc2cccc(C(=O)Nc3cc(C(=O)Nc4ccc(S(=O)(=O)O)c5cc(S(=O)(=O)O)cc(S(=O)(=O)O)c45)ccc3C)c2)c1` [Suramin, suramin, reference compound], the IC50 is more than 70 µM in data set [1] and 0.07 ± 0.02 µM in data set [3].
In the case of `O=[N+]([O-])c1ccc2[nH]ccc2c1` [compound 1, 5-nitroindole], the “Static anti-amastigote activity IC50” value in data set [5] and in data set [7] was “inactive” in each case. In addition, the “AG (activity gain)” value in data set [2] and in data set [4] was 1 each time. The IC50 is 50.3 ± 1.36 µM in data set [2]; more than 100 µM in [6]; 79.5 ± 14.9 µM in the data set “General”; more than 154 µM in data set [3]; 45.8 ± 5.47 µM in data set [4]. The compound further displayed an SI1 in data set [2] of 2. In addition, the SI4 in [4] is reported as 2.
